According to PMC9502403, “Saquayamycin B1 Suppresses Proliferation, Invasion, and Migration by Inhibiting PI3K/AKT Signaling Pathway in Human Colorectal Cancer Cells” (Marine Drugs, 2022):

How the values were obtained:
SW620 cells [1] = assay: MTT cytotoxicity assay, SW620; assay type: cell-based; settings: Homo sapiens, SW-620, 48 h, mean ± SD
Method: (§1) Human CRC cell lines SW480 (BeNa Culture Collection, Xinyang, China), SW620 (Procell Life Science & Technology Co., Ltd., Wuhan, China), and HT-29 (Zhong Qiao Xin Zhou Biotechnology Co., Ltd., Shanghai, China) were cultured in RPMI 1640 Medium (Livning Biotechnology Co., Ltd., Beijing, China), LoVo cells (Zhong Qiao Xin Zhou Biotechnology Co., Ltd., Shanghai, China) were cultured in DMEM/F12 (Livning Biotechnology Co., Ltd., Beijing, China), and normal human liver cell line QSG-7701 (Beyotime Institute of Biotechnology, Shanghai, China) was cultured in DMEM/high glucose (Livning Biotechnology Co., Ltd., Beijing, China) containing 10% fetal bovine serum (FBS) (Gibco Life Technologies, San Jose, CA, USA). The cells were cultured in a constant temperature incubator at 37 °C, 5% CO2.
(§2) The cytotoxicity of Mor B, Saq B1, Saq B, and Lan N on CRC and the normal human liver cells was detected by MTT (3-(4,5-dimethylthiazol)-2,5-diphenyltetrazolium bromide) assay (Sigma-Aldrich Corp., St. Louis, MO, USA). Cells were evenly distributed in 96-well plates overnight and then treated with Mor B, Saq B1, Saq B, and Lan N at different concentrations for 48 h. The negative control group was treated with the same concentration of DMSO. After treatment, 10 μL of the 5 mg/mL MTT solution was added to each well in the incubator for 4 h. Then, the MTT solution was removed and 150 μL DMSO was added into each hole to dissolve the purple crystal. The absorbance of each well was read at 570 nm with a microplate reader, and the IC50 values were calculated using the software. Each sample was measured three times independently.

HT-29 cells = assay: MTT cytotoxicity assay, HT-29; assay type: cell-based; settings: Homo sapiens, 48 h, mean ± SD
Method: as §1, §2

QSG-7701 cells = assay: MTT cytotoxicity assay, QSG-7701 normal liver cells; assay type: cell-based; settings: QSG7701, 48 h, normal human liver cells, mean ± SD
Method: as §1, §2

LoVo cells = assay: MTT cytotoxicity assay, LoVo; assay type: cell-based; settings: Homo sapiens, 48 h, mean ± SD
Method: as §1, §2

SW480 cells [2] = assay: MTT cytotoxicity assay, SW480; assay type: cell-based; settings: Homo sapiens, 48 h, mean ± SD
Method: as §1, §2

Bax/Bcl-2 = assay: Western blot of Bax and Bcl-2; assay type: cell-based, human; settings: SW480 and SW620 cells
Method: (§3) Western blotting was used to reveal changes in the expression of specific proteins after Saq B1 treatment. The cells treated with varying doses of Saq B1 were lysed with RIPA buffer (Beyotime Biotech, Shanghai, China) to obtain total protein, which was quantified using a BCA kit. The proteins with different molecular weights were separated by SDS-PAGE electrophoresis. The protein was transferred to a PVDF membrane and sealed with 5% skim milk for 1 h. After washing with TBS-T buffer, the respective primary antibodies were added to the membrane and incubated at 4 °C overnight. Next, the PVDF membrane was washed with TBS-T buffer three times and incubated with antimouse IgG or antirabbit IgG secondary antibody (CST, Inc., Beverly, MA, USA) for 1 h at room temperature. Proteins on the membranes were visualized using the enhanced chemiluminescence detection kit (ECL®, Amersham Biosciences, Little Chalfont, UK).

CRC cells = assay: MTT cytotoxicity assay, CRC cells (range over lines); assay type: cell-based; settings: Homo sapiens, range over SW480, SW620, LoVo, HT-29
Method: as §1
as §2, with “The negative control group was treated with the same concentration of DMSO. After treatment, 10 μL of the 5 mg/mL MTT solution was added to each well in the incubator for 4 h. Then, the MTT solution was removed and 150 μL DMSO was added into each hole to dissolve the purple crystal.” left out

SW480 cells [3] = assay: Annexin V-FITC/PI flow cytometry of apoptosis, SW480; assay type: cell-based, human
Source text: (§4) Annexin V-FITC and Propidium Iodide (PI) apoptosis-detection kits were used to determine the specific proportion of apoptotic cells. Annexin V-FITC is used to detect phosphatidylserine, which moves from the inside of the membrane to the surface of the cell membrane during apoptosis, producing green fluorescence. Late apoptotic cells whose cell membrane integrity is destroyed can be stained with PI, producing red fluorescence.
(§5) An Annexin V-FITC apoptosis detection kit was used to detect cell apoptosis by flow cytometry after staining. The cells were placed in 6-well plates and digested by trypsin (Solarbio, Beijing, China) after Saq B1 treatment. Then, the cells were washed with PBS and centrifuged for 5 min, and the supernatant was discarded. Annexin V-FITC binding buffer was added to gently suspend the cells. Annexin V-FITC and PI were successively added and slowly mixed. Apoptosis was immediately assessed by flow cytometry (Becton, Dickinson and Company, San Jose, CA, USA). Each sample was measured three times.

SW480 cells [4] = assay: Transwell migration and invasion assay; assay type: cell-based, human
Method: The transwell assay is used to test the ability of cells to invade and metastasize. In the invasion assay, we placed transwell chambers in a 24-well plate, and cells were suspended in 200 μL serum-free medium at the density of 1 × 10^5 cells/mL. Then, cells were added to an upper chamber containing Matrigel, while 700 μL of the medium containing 20% FBS as a chemo-attractant was added to the lower chamber. The cells were treated with various doses of Saq B1 and incubated with 5% CO2 at 37 °C. Thereafter, all media were discarded, and the cells in the lower chamber were fixed in 4% paraformaldehyde for 20 min and placed in 0.5% crystal violet dye for 20 min. After washing the cells with PBS three times, five regions were selected randomly under the microscope, pictures were taken, and the number of transmembrane cells was counted. The migration assay followed the same procedure as the invasion assay but without Matrigel. Each sample was evaluated independently three times.

SW480 cells [5] = assay: Wound-healing assay; assay type: cell-based, human; settings: SW480, with increasing dose, 48 h
Method: To determine the migratory ability of cells in vitro, we adopted the cell scratch test. Cells were placed in a 6-well plate at a density of 5 × 10^4 cells per well. When the cells had adhered to 90% of each well, we made equal-width scratches at the same position in each hole with sterile micropipette tips. Each well was washed three times with PBS to remove suspended cells. The cells in the well were treated with different concentrations of Saq B1. The wound-healing rate (%) = (1 − (the width of the assay group/the width of the control group)) × 100% was calculated according to the width of the scratches in each group to evaluate the migratory ability of the cells. Each sample was measured three times.

SW480 cells [6] = assay: Colony formation assay; assay type: cell-based, human; settings: SW480, with increasing concentration, 14 days
Source text: The cell colony formation assay is an important technique for detecting cell proliferation, invasiveness, and drug sensitivity. After digestion of trypsin in the logarithmic growth phase, the cells were inoculated on 6-well plates at a density of 700 cells/well. The medium was refreshed every 3 days and treatment continued for 14 days. Finally, the colonies were fixed with 4% paraformaldehyde and stained with crystal violet. Colonies with >50 cells were counted and photographed.

[7] = system: E-cadherin, N-cadherin, and vimentin; assay: Western blot of EMT markers; assay type: cell-based, human; settings: SW480 and SW620 cells, 0–0.3 μmol/L
Method: as §3

SW620 cells [8] = assay: Annexin V-FITC/PI flow cytometry of apoptosis, SW620; assay type: cell-based, human
Source text: as §4, §5

PI3K/AKT pathway = assay: Western blot of PI3K, AKT, p-AKT; assay type: cell-based, human; settings: SW480 and SW620 cells, 0.1 μM, 0.2 μM, and 0.3 μM
Method: as §3

Row | Compound | IC50 (SW620 cells [1]) | IC50 (HT-29 cells) | IC50 (QSG-7701 cells) | IC50 (LoVo cells) | IC50 (SW480 cells [2]) | also measured
1 | Cc1cc(O)c2c3c(cc(O)c2c1)C(=O)c1c(ccc([C@H]2C[C@H]4O[C@H]5CC(=O)[C@H](C)O[C@H]5O[C@@H]4[C@@H](C)O2)c1O)C3=O [Landomycin N] | > 20000 nM | > 20000 nM | > 20000 nM | > 20000 nM | > 20000 nM | –
2 | C[C@@H]1O[C@@H](O[C@H]2CC[C@H](O[C@@]3(C)CC(=O)[C@]4(O)C5=C(C=C[C@]4(O)C3)C(=O)c3c(ccc([C@H]4C[C@H]6O[C@H]7CC(=O)[C@H](C)O[C@H]7O[C@@H]6[C@@H](C)O4)c3O)C5=O)O[C@H]2C)C=CC1=O [Saquayamycin B] | 420 ± 20 nM | 890 ± 20 nM | 1380 ± 140 nM | 750 ± 30 nM | 320 ± 30 nM | –
3 | C[C@@H]1O[C@H]2O[C@@H]3[C@@H](C)O[C@@H](c4ccc5c(c4O)C(=O)C4=C(C5=O)[C@@]5(O)C(=O)C[C@](C)(O)C[C@@]5(O)C=C4)C[C@H]3O[C@H]2CC1=O [Saquayamycin B1] | 260 ± 30 nM | 840 ± 50 nM | 1570 ± 120 nM | 630 ± 70 nM | 180 ± 10 nM | expression of Bax/Bcl-2 (Bax/Bcl-2): increased; IC50 (CRC cells): 180 to 840 nM; apoptosis rate (SW480 cells [3]; SW480, Saq B1 0.1 μM): 24.31%; apoptosis rate (SW480 cells [3]; SW480, Saq B1 0.2 μM): 30.75%; apoptosis rate (SW480 cells [3]; SW480, Saq B1 0.3 μM): 40.12%; cellular migration and invasion (SW480 cells [4]): dose-dependent inhibition; wound-healing rate of cells (SW480 cells [5]): decreased gradually; size and number of cell clones (SW480 cells [6]): declined; expression of epithelial adhesion protein E-cadherin [7]: increased; expression of mesenchymal protein N-cadherin [7]: decreased; expression of mesenchymal protein vimentin [7]: decreased; apoptosis rate (SW620 cells [8]; SW620, Saq B1 0.1 μM): 8.11%; apoptosis rate (SW620 cells [8]; SW620, Saq B1 0.2 μM): 12.67%; apoptosis rate (SW620 cells [8]; SW620, Saq B1 0.3 μM): 30.69%; protein expression level of AKT (PI3K/AKT pathway): basically unchanged; protein expression level of PI3K (PI3K/AKT pathway): decreased; protein expression level of p-AKT (PI3K/AKT pathway): decreased
4 | C[C@@H]1O[C@H]2O[C@@H]3[C@@H](C)O[C@@H](c4ccc5c(c4O)C(=O)c4ccc6c(c4C5=O)C(=O)C[C@](C)(O)C6)C[C@H]3O[C@H]2CC1=O [Moromycin B] | 340 ± 50 nM | 820 ± 40 nM | 1260 ± 150 nM | 780 ± 20 nM | 450 ± 60 nM | –
5 | COc1cccc2c1C(=O)c1c(O)c3c(c(O)c1C2=O)C[C@@](O)(C(=O)CO)C[C@@H]3O[C@H]1C[C@H](N)[C@H](O)[C@H](C)O1 [Doxorubicin, reference compound] | 1060 ± 110 nM | 1020 ± 100 nM | 1330 ± 30 nM | 830 ± 120 nM | 910 ± 80 nM | –
